From patent US20250171438A1 (Agios Pharmaceuticals, Inc., priority 2022, published 2025)

The compounds below were run against T1, human PAH with the R408W mutation (Homo sapiens, UniProt P00439, R408W) (assay: Cell Based Phenylalanine Flux Assay). Details: A375 cells expressing human R408W PAH; 24 hrs compound incubation; 13C-Tyrosine by LC-MS; average where tested multiple times; read-out: AC50.
T1 construct: expressed in transfected cells
T1 sequence (P00439 1-452 R408W): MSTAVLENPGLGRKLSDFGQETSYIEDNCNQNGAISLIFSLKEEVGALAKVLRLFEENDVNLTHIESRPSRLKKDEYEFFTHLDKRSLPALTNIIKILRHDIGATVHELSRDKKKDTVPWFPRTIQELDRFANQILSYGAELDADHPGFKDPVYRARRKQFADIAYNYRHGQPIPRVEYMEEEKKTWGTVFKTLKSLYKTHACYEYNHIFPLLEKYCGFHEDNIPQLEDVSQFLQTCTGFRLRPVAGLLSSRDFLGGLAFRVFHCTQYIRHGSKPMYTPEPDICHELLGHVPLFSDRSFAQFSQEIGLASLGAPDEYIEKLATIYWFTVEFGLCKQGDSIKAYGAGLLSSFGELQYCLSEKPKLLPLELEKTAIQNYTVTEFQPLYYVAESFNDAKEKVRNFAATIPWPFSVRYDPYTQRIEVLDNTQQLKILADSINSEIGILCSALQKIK

Q: With `O=C(c1nnc(-c2ccc(F)cc2F)o1)N1CCc2[nH]cnc2[C@H]1c1nc2c(F)cccc2s1` [Example 1876, (S)-(5-(2,4-difluorophenyl)-1,3,4-oxadiazol-2-yl)(4-(4-fluorobenzo[d]thiazol-2-yl)-6,7-dihydro-1H-imidazo[4,5-c]pyridin-5(4H)-yl)methanone] as the compound, how does the AC50 read?
A: < 500 nM

Q: With `Cc1cccc2sc([C@H]3c4nc[nH]c4CCN3C(=O)c3cncs3)nc12` [Example 1306, (R)-(4-(4-methylbenzo[d]thiazol-2-yl)-6,7-dihydro-1H-imidazo[4,5-c]pyridin-5(4H)-yl)(thiazol-5-yl)methanone] as the compound, how does the AC50 read?
A: 1000 to 5000 nM

Q: For `O=C(c1oc(NC2CC2)nc1C(F)(F)F)N1CCCc2[nH]cnc2[C@H]1c1nc2ccccc2s1` [Example 2127, (S)-(4-(benzo[d]thiazol-2-yl)-7,8-dihydroimidazo[4,5-c]azepin-5(1H,4H,6H)-yl)(2-(cyclopropylamino)-4-(trifluoromethyl)oxazol-5-yl)methanone], which AC50 is on record?
A: 1000 to 5000 nM

Q: `O=C(c1cnn2ccc(Cl)cc12)N1CCc2[nH]cnc2[C@H]1c1nc2ccccc2s1` [Example 1107] was tested. Which AC50 did it give?
A: < 500 nM

Q: Which AC50 does the source give for `CC(C)(F)c1nnc(C(=O)N2CCc3[nH]cnc3[C@H]2c2nc3c(F)cccc3s2)o1` [Example 1836, (S)-(4-(4-fluorobenzo[d]thiazol-2-yl)-6,7-dihydro-1H-imidazo[4,5-c]pyridin-5(4H)-yl)(5-(2-fluoropropan-2-yl)-1,3,4-oxadiazol-2-yl)methanone] here?
A: < 500 nM

Q: How did the AC50 turn out when `O=C(c1cnn2ccc(Cl)cc12)N1CCc2[nH]cnc2[C@H]1c1nc2cc(F)ccc2s1` [Example 1167] was run?
A: 500 to 1000 nM

Q: `CC(C)n1cc(-c2ncc(C(=O)N3CCc4[nH]cnc4[C@@H]3c3nc4ccccc4s3)o2)cn1` [Example 1416, (R)-(4-(benzo[d]thiazol-2-yl)-6,7-dihydro-1H-imidazo[4,5-c]pyridin-5(4H)-yl)(2-(1-isopropyl-1H-pyrazol-4-yl)oxazol-5-yl)methanone] was tested. Which AC50 did it give?
A: 1000 to 5000 nM

Q: `N#Cc1ccn2ncc(C(=O)N3CCc4[nH]cnc4[C@H]3c3nc4c(F)cccc4s3)c2c1` [Example 1249, (S)-3-(4-(4-fluorobenzo[d]thiazol-2-yl)-4,5,6,7-tetrahydro-1H-imidazo[4,5-c]pyridine-5-carbonyl)pyrazolo[1,5-a]pyridine-5-carbonitrile] was tested. Which AC50 did it give?
A: 500 to 1000 nM

Q: For `O=C(c1nc2ccccc2o1)N1CCc2[nH]cnc2[C@H]1c1nc2ccccc2[nH]1` [Example 999, (S)-(4-(1H-benzo[d]imidazol-2-yl)-6,7-dihydro-1H-imidazo[4,5-c]pyridin-5(4H)-yl)(benzo[d]oxazol-2-yl)methanone], which AC50 is on record?
A: 1000 to 5000 nM

Q: How did the AC50 turn out when `O=C(c1oc(C2(O)CCC2)nc1C(F)(F)F)N1CCc2[nH]cnc2[C@@H]1c1nc2ccccc2s1` [Example 1566, (R)-(4-(benzo[d]thiazol-2-yl)-6,7-dihydro-1H-imidazo[4,5-c]pyridin-5(4H)-yl)(2-(1-hydroxycyclobutyl)-4-(trifluoromethyl)oxazol-5-yl)methanone] was run?
A: < 500 nM

Q: How did the AC50 turn out when `O=C(c1oc(C2CC2)nc1C(F)(F)F)N1CCc2[nH]cnc2[C@@H]1c1nc2ccccc2s1` [Example 2164, (R)-(4-(benzo[d]thiazol-2-yl)-6,7-dihydro-1H-imidazo[4,5-c]pyridin-5(4H)-yl)(2-cyclopropyl-4-(trifluoromethyl)oxazol-5-yl)methanone] was run?
A: < 500 nM

Q: For `O=C(CC1CC1)N1CCc2[nH]cnc2[C@@H]1c1nc2ccc(Cl)cc2[nH]1` [Example 953, (R)-1-(4-(6-chloro-1H-benzo[d]imidazol-2-yl)-6,7-dihydro-1H-imidazo[4,5-c]pyridin-5(4H)-yl)-2-cyclopropylethanone], which AC50 is on record?
A: 1000 to 5000 nM

Q: How did the AC50 turn out when `O=C(c1ccnn1C(F)(F)F)N1CCc2[nH]cnc2[C@H]1c1nc2ccccc2s1` [Example 2097] was run?
A: < 500 nM

Q: `O=C(c1cnn2ccccc12)N1CCc2[nH]cnc2[C@@H]1c1nc2cccc(Br)c2s1` [Example 1336, (R)-(4-(7-bromobenzo[d]thiazol-2-yl)-6,7-dihydro-1H-imidazo[4,5-c]pyridin-5(4H)-yl)(pyrazolo[1,5-a]pyridin-3-yl)methanone] was tested. Which AC50 did it give?
A: 1000 to 5000 nM

Q: Which AC50 does the source give for `O=C(c1cnn2ccccc12)N1CCc2[nH]cnc2[C@H]1c1nc2ccccc2[nH]1` [Example 923, (S)-(4-(1H-benzo[d]imidazol-2-yl)-6,7-dihydro-1H-imidazo[4,5-c]pyridin-5(4H)-yl)(pyrazolo[1,5-a]pyridin-3-yl)methanone] here?
A: 500 to 1000 nM

Q: `COCc1nc(C(F)F)c(C(=O)N2CCc3[nH]cnc3[C@@H]2c2nc3ccccc3s2)o1` [Example 1808, (R)-(4-(benzo[d]thiazol-2-yl)-6,7-dihydro-1H-imidazo[4,5-c]pyridin-5(4H)-yl)(4-(difluoromethyl)-2-(methoxymethyl)oxazol-5-yl)methanone] was tested. Which AC50 did it give?
A: 1000 to 5000 nM

Q: How did the AC50 turn out when `O=C(c1nnc(-c2ccccc2)s1)N1CCc2[nH]cnc2[C@H]1c1nc2ccccc2s1` [Example 1419] was run?
A: < 500 nM

Q: Which AC50 does the source give for `O=C([C@@H]1CC1(F)F)N1CCc2[nH]cnc2[C@@H]1c1nc2c(F)cccc2s1` [Example 1646, ((S)-2,2-difluorocyclopropyl)((R)-4-(4-fluorobenzo[d]thiazol-2-yl)-6,7-dihydro-1H-imidazo[4,5-c]pyridin-5(4H)-yl)methanone] here?
A: 1000 to 5000 nM

Q: `Cn1nc(Cl)cc1C(=O)N1CCc2[nH]cnc2[C@@H]1c1nc2ccccc2s1` [Example 1924, (R)-(4-(benzo[d]thiazol-2-yl)-6,7-dihydro-1H-imidazo[4,5-c]pyridin-5(4H)-yl)(3-chloro-1-methyl-1H-pyrazol-5-yl)methanone] was tested. Which AC50 did it give?
A: 1000 to 5000 nM

Q: Which AC50 does the source give for `CC(C)(O)c1nc(C(F)F)c(C(=O)N2CCc3[nH]cnc3[C@@H]2c2nc3c(F)cccc3s2)o1` [Example 1774, (R)-(4-(difluoromethyl)-2-(2-hydroxypropan-2-yl)oxazol-5-yl)(4-(4-fluorobenzo[d]thiazol-2-yl)-6,7-dihydro-1H-imidazo[4,5-c]pyridin-5(4H)-yl)methanone] here?
A: 1000 to 5000 nM

Q: For `O=C(N1CC(F)C1)N1CCc2[nH]cnc2[C@H]1c1nc2ccccc2s1` [Example 1689], which AC50 is on record?
A: < 500 nM

Q: With `CC(C)(O)c1nc(C(F)F)c(C(=O)N2CCc3[nH]cnc3[C@@H]2c2nc3c(F)cccc3s2)s1` [Example 2086, (R)-(4-(difluoromethyl)-2-(2-hydroxypropan-2-yl)thiazol-5-yl)(4-(4-fluorobenzo[d]thiazol-2-yl)-6,7-dihydro-1H-imidazo[4,5-c]pyridin-5(4H)-yl)methanone] as the compound, how does the AC50 read?
A: 500 to 1000 nM

Q: With `O=C(c1oc(C2CC(F)(F)C2)nc1C(F)F)N1CCc2[nH]cnc2[C@@H]1c1nc2ccccc2s1` [Example 1785, (R)-(4-(benzo[d]thiazol-2-yl)-6,7-dihydro-1H-imidazo[4,5-c]pyridin-5(4H)-yl)(2-(3,3-difluorocyclobutyl)-4-(difluoromethyl)oxazol-5-yl)methanone] as the compound, how does the AC50 read?
A: < 500 nM

Q: With `Cc1nc(-c2cnn(C)c2)oc1C(=O)N1CCc2[nH]cnc2[C@@H]1c1nc2c(F)cccc2s1` [Example 1377, (R)-(4-(4-fluorobenzo[d]thiazol-2-yl)-6,7-dihydro-1H-imidazo[4,5-c]pyridin-5(4H)-yl)(4-methyl-2-(1-methyl-1H-pyrazol-4-yl)oxazol-5-yl)methanone] as the compound, how does the AC50 read?
A: > 5000 nM

Same assay, conditions: A375 cells expressing human R408W PAH; 24 hrs with compound; 13C-Tyrosine by LC-MS; average where tested multiple times; read-out: AC50

Q: `Cn1ncnc1C(=O)N1CCc2[nH]cnc2[C@@H]1c1nc2c(F)cccc2s1` (single isomer, unassigned) was tested. Which AC50 did it give?
A: > 5000 nM

Q: `O=C(c1cnn2cc(C=Cc3ccccc3)ccc12)N1CCc2[nH]cnc2C1c1nc2ccccc2s1` (stereo not shown) was tested. Which AC50 did it give?
A: > 5000 nM

Q: For `Cn1nc(C(C)(C)O)cc1C(=O)N1CCc2[nH]cnc2C1c1nc2c(F)cccc2s1` (stereo not shown), which AC50 is on record?
A: 1000 to 5000 nM

Q: For `Nc1cnc(N2CCc3[nH]cnc3C2c2nc3ccccc3s2)nc1` (stereo not shown), which AC50 is on record?
A: 1000 to 5000 nM

Q: For `O=C(c1cnn2cc(Br)ccc12)N1CCc2[nH]cnc2C1c1nc2ccc(Br)cc2[nH]1` (stereo not shown), which AC50 is on record?
A: 1000 to 5000 nM

Q: `O=C(c1ncco1)N1CCc2[nH]cnc2C1c1nc2ccccc2s1` (stereo not shown) was tested. Which AC50 did it give?
A: > 5000 nM

Q: With `N#Cc1n[nH]cc1C(=O)N1CCc2[nH]cnc2C1c1nc2ccccc2s1` (stereo not shown) as the compound, how does the AC50 read?
A: 1000 to 5000 nM

Q: With `O=C(CCc1nnc(Br)s1)N1CCc2[nH]cnc2[C@H]1c1nc2ccccc2[nH]1` [(S)-1-(4-(1H-benzo[d]imidazol-2-yl)-1,4,6,7-tetrahydro-5H-imidazo[4,5-c]pyridin-5-yl)-3-(5-bromo-1,3,4-thiadiazol-2-yl)propan-1-one] as the compound, how does the AC50 read?
A: 1000 to 5000 nM

Q: For `Cc1noc(C(=O)N2CCc3[nH]cnc3C2c2nc3ccccc3s2)n1` (stereo not shown), which AC50 is on record?
A: 1000 to 5000 nM

Q: With `O=C(c1nc2ccccc2s1)N1CCc2[nH]cnc2C1c1nc2ccc(Br)cc2[nH]1` (stereo not shown) as the compound, how does the AC50 read?
A: 1000 to 5000 nM

Q: For `O=C(CCc1nc(Cl)cs1)N1CCc2[nH]cnc2[C@H]1c1nc2ccccc2[nH]1` [(S)-1-(4-(1H-benzo[d]imidazol-2-yl)-1,4,6,7-tetrahydro-5H-imidazo[4,5-c]pyridin-5-yl)-3-(4-chlorothiazol-2-yl)propan-1-one], which AC50 is on record?
A: 1000 to 5000 nM

Q: Which AC50 does the source give for `COCCNc1nnc(C(=O)N2CCc3[nH]cnc3[C@@H]2c2nc3ccccc3s2)o1` (single isomer, unassigned) here?
A: > 5000 nM

Q: Which AC50 does the source give for `[2H]C([2H])([2H])OCc1cc(C(=O)N2CCc3[nH]cnc3C2c2nc3c(F)cccc3s2)n(C)n1` (stereo not shown) here?
A: > 5000 nM

Q: With `Cn1ncc(C(=O)N2CCc3[nH]cnc3C2c2nc3c(F)cccc3s2)c1C#N` (stereo not shown) as the compound, how does the AC50 read?
A: > 5000 nM

Q: Which AC50 does the source give for `O=C(CCc1nccs1)N1CCc2nc[nH]c2C1c1nc2cccc(Cl)c2[nH]1` (stereo not shown) here?
A: 1000 to 5000 nM

Q: Which AC50 does the source give for `Cc1cnc(CCC(=O)N2CCc3[nH]cnc3[C@H]2c2nc3ccccc3[nH]2)s1` [(S)-1-(4-(1H-benzo[d]imidazol-2-yl)-1,4,6,7-tetrahydro-5H-imidazo[4,5-c]pyridin-5-yl)-3-(5-methylthiazol-2-yl)propan-1-one] here?
A: 1000 to 5000 nM
